Measurements from ChEMBL document CHEMBL5223131, “A first-in-class clinical G-quadruplex-targeting drug. The bench-to-bedside translation of the fluoroquinolone QQ58 to CX-5461 (Pidnarulex)” (Bioorg Med Chem Lett, 2022).
Activity calls are given as the source filed them. The rule behind the calls is not given here.

Columns and labels:
[1] = target: T1, DNA topoisomerase II (Homo sapiens) (UniProt P11388+Q02880); assay: Inhibition of human Top2 assessed as decrease in enzyme mediated DNA cleavage at site A at high concentration; assay type: protein assay
[2] = target: T1, DNA topoisomerase II (Homo sapiens); assay: Inhibition of human Top2 assessed as decrease in intensity of decatenated DNA using catenated KDNA at 0.5 to 10 uM; assay type: protein assay; details: dose 0.5-10 µM
[3] = target: T1, DNA topoisomerase II (Homo sapiens); assay: Inhibition of human Top2 assessed as decrease in enzyme mediated DNA cleavage at site A at low concentration; assay type: protein assay
[4] = target: T1, DNA topoisomerase II (Homo sapiens); assay: Inhibition of human Top2 assessed as decrease in enzyme mediated DNA cleavage at site A at 0.5 to 10 uM; assay type: protein assay; details: dose 0.5-10 µM
[5] = target: DNA topoisomerase 2-alpha (Homo sapiens) (UniProt P11388); assay: Inhibition of human Top2 assessed as decrease in intensity of decatenated DNA using catenated KDNA at 2 to 50 uM; details: dose 2-50 µM
Chain of DNA topoisomerase 2-alpha (Homo sapiens) (P11388 whole entry): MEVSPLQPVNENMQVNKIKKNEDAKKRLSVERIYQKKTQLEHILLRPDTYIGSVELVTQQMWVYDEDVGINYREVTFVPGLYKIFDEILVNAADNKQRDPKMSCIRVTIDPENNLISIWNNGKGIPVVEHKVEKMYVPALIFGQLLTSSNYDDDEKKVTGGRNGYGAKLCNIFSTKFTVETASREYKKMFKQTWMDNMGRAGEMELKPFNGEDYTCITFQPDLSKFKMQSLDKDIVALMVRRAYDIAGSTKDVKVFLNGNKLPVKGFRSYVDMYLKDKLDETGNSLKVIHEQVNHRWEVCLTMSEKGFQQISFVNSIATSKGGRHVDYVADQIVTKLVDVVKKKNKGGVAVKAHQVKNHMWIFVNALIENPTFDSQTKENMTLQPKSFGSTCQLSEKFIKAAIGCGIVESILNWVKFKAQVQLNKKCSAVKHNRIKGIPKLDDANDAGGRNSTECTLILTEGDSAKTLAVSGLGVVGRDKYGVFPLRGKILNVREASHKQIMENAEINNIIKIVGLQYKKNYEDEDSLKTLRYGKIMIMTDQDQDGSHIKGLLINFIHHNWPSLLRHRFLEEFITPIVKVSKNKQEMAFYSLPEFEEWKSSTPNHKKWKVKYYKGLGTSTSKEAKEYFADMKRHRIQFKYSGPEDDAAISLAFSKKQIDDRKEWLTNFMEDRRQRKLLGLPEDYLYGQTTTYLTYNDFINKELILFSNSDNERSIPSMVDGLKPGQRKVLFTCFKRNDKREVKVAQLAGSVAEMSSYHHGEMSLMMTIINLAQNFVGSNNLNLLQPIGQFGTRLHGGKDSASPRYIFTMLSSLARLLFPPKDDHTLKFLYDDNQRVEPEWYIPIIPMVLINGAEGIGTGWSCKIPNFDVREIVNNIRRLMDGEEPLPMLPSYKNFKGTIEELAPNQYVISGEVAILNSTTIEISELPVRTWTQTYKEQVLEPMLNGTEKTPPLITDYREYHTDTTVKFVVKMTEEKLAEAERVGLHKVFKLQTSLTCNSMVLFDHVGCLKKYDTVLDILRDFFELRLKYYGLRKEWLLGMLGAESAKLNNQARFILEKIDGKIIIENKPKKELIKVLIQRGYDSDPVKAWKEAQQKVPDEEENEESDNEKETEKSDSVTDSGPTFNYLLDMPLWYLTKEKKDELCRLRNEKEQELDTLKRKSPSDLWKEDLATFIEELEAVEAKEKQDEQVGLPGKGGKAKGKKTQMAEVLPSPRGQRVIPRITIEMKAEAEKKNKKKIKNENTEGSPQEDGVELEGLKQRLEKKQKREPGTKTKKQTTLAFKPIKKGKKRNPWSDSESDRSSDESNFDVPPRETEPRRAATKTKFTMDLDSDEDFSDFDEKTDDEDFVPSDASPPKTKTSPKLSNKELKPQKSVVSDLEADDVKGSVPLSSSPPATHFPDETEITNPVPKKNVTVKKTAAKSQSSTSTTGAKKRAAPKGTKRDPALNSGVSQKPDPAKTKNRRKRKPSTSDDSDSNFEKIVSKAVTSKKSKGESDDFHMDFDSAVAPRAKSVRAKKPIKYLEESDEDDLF

| Activity [1] | Activity [2] | Activity [3] | Activity [4] | fold change (FC) [5] | Compound |
| --- | --- | --- | --- | --- | --- |
| inactive | Active | Active |  |  | N[C@H]1CCN(c2c(F)cc3c(=O)c(C(=O)O)cn4c3c2Oc2ccccc2-4)C1 |
|  |  |  | Active | 5 | N[C@H]1CCN(c2c(F)cc3c(=O)c(C(=O)O)cn4c3c2Oc2cc3c(cc2-4)oc2ccccc23)C1 |
